Values quoted from earlier work as cited in patent US20080096926A1, “Treatment Of Cognitive Impairment Using A Selective Dopamine D1 Receptor Agonist” (DrugAbuse Sciences SAS, priority 2002, published 2008).
Structures can show the parent of a compound that is named as a salt.

Legend:
MPTP treated monkeys = conditions: for anti-parkinsonian activity: MPTP treated monkeys
[1] = system: young control monkeys and aged monkeys
monkeys = conditions: 0.1, 0.3 and 1 mg/kg/day IM
[2] = system: non-human primate model of cognitive impairment
[3] = system: prefrontal cortex of rhesus monkeys; conditions: local injections into the prefrontal cortex of rhesus monkeys
healthy volunteers = conditions: 0.1 mg, 32 healthy volunteers

In the case of `Oc1cc2c(cc1O)[C@H]1c3ccccc3CN[C@@H]1CC2` (racemic) [dihydrexidine], the anti-parkinsonian activity (MPTP treated monkeys) is listed as “attenuates these parkinsonian signs while increasing eye blink rate”, the “memory performance in monkeys following administration of D1 agonists” value [1] is listed as “Improved memory performance” and the memory performance ([1]; young control monkeys and aged monkeys) is listed as “improves memory performance”.

In the case of `CCCc1cc2c(s1)CN[C@@H]1CCc3cc(OC(C)=O)c(OC(C)=O)cc3[C@@H]21` [DAS-431, (−)-trans 9,10-diacetyloxy-2-propyl-4,5,5a,6,7,11b-hexahydro-3-thia-5-azacyclopent-1-ena[c] phenanthrene hydrochloride], the “effect following repeated administration” value (MPTP-lesioned macaques; other studies (Michaelides et al. 1995)) is listed as “potent effect is maintained”, the efficacy over time (MPTP-lesioned macaques; three-time daily 0.32 mg/kg s.c. for thirty days) is listed as “no difference over time” and the tolerance (monkeys) is listed as “tolerance may have developed after 3 days of treatment”. For the same compound, the “antiparkinsonian activity (reported for D1 agonists)” value (MPTP treated monkeys; model not stated) was “antiparkinsonian activity”, the “dose relationship of adverse events” value (1 mg to 40 mg IV per day) was “no clear dose relationship with the exception of nausea and vomiting in the cocaine abuser population and of dizziness in all subjects” and the “tolerance to side effects” value (Parkinson's disease population) was “rapid tolerance to nausea and vomiting”. The EKG (in vivo) was “Transitory EKG changes”, the “severity of adverse events” value (in vivo) was “mild or moderate” and the adverse events (previous treatment protocols) was “high incidence of dopamine related symptoms such as nausea, vomiting, hypotension, postural hypotension, dizziness, injection and application site reactions”. For the same compound, the “reversal of haloperidol-induced working memory impairment” value ([2]; 0.01 μg/kg to 0.1 μg/kg IM, five blocks of five consecutive days) was “reverse the haloperidol effects” and the “persistence of treatment effect after the final treatment” value ([2]; in some monkeys) was “more than a year”.

For `Cc1nc2n(c(=O)c1CCN1CCC(c3noc4cc(F)ccc34)CC1)CCCC2` [Risperidone, risperidone], the executive functioning (schizophrenia; schizophrenia) is given as “positive effects”, the “verbal learning and memory” value (schizophrenia; schizophrenia) is given as “inconsistent results” and the working memory (schizophrenia; schizophrenia) is given as “positive effects”.

For `CN1CCc2cc(Cl)c(O)cc2[C@H]2c3ccccc3CC[C@@H]21` [SCH39166], the “performance on working memory tasks” value [3] is listed as “induce errors and increase latency of performance”.

For `Oc1cc2c(cc1O)C(c1ccccc1)CNCC2` (stereo not drawn) [SKF 38393], the anti-parkinsonian activity (MPTP treated monkeys) is given as “without anti-parkinsonian activity”, the “memory performance in monkeys following administration of D1 agonists” value [1] is given as “Improved memory performance” and the food intake (rats) is given as “decrease food intake”.

For `C=CCN1CCc2c(cc(O)c(O)c2Cl)C(c2ccccc2)C1` (stereo not drawn) [SKF 82958], the anti-parkinsonian activity (MPTP treated monkeys) is given as “increase locomotor activity and improve parkinsonian score”.

In the case of `CN1CCN(C2=Nc3cc(Cl)ccc3Nc3ccccc32)CC1` [clozapine], the severe side effects (schizophrenia; in vivo) is given as “agranulocytosis”.

For `CCCN1C[C@H](CSC)C[C@@H]2c3cccc4[nH]cc(c34)C[C@H]21` [pergolide], the “effect on spatial memory” value (healthy volunteers) is listed as “positive effect”.
